ChEMBL document CHEMBL3885881, “DrugMatrix”

Species: Rattus norvegicus
Assay: DrugMatrix - Regimen: Daily Repeat
Format: toxicity, organism-based, Sprague-Dawley
Design: regimen Daily Repeat, gender Male, age 6-8 weeks
Settings: in vivo, po, route oral GAVAGE, vehicle .5 % CMC; for ABSOLUTE BASOPHIL / ABSOLUTE EOSINOPHIL / ABSOLUTE LYMPHOCYTE / ABSOLUTE MONOCYTE / ABSOLUTE SEGMENTED NEUTROPHIL / BASOPHIL / EOSINOPHIL / ERYTHROCYTE COUNT / HEMATOCRIT / HEMOGLOBIN / LEUKOCYTE COUNT / LYMPHOCYTE / MEAN CORPUSCULAR HEMOGLOBIN / MEAN CORPUSCULAR HEMOGLOBIN CONCENTRATION / MEAN CORPUSCULAR VOLUME / MONOCYTE / NEUTROPHIL / NUCLEATED RED BLOOD CELLS / PLATELET COUNT: tissue Blood; for ALANINE AMINOTRANSFERASE / ALBUMIN / ALKALINE PHOSPHATASE / ASPARTATE AMINOTRANSFERASE / BLOOD UREA NITROGEN / CARBON DIOXIDE / CHLORIDE / CHOLESTEROL / CREATINE PHOSPHOKINASE / CREATININE / GLUCOSE / LACTATE DEHYDROGENASE / LIPASE / PHOSPHORUS / POTASSIUM / SODIUM / TOTAL BILIRUBIN / TOTAL PROTEIN: tissue Plasma
[1] = 0 mg/kg, 72 h, dose level Control, time 3 day
[2] = 0 mg/kg, 120 h, dose level Control, time 5 day
[3] = 25 mg/kg, 72 h, dose level Low, time 3 day

In the case of `COc1cc(/C=C/C(=O)O)ccc1O` [FERULATE], the “ABSOLUTE BASOPHIL” value [1] was 0 CELLS/uL, the “ABSOLUTE EOSINOPHIL” value [1] was 284.5 CELLS/uL and the “ABSOLUTE LYMPHOCYTE” value [1] was 11670.5 CELLS/uL. For the same compound, the “ABSOLUTE MONOCYTE” value [1] was 420.83 CELLS/uL, the “ABSOLUTE SEGMENTED NEUTROPHIL” value [1] was 1024.17 CELLS/uL and the BASOPHIL [1] was 0%. For the same compound, the EOSINOPHIL [1] was 1.67%, the “ERYTHROCYTE COUNT” value [1] was 5.38 x10E6/uL and the HEMATOCRIT [1] was 34.05%. For the same compound, the HEMOGLOBIN [1] was 12.75 G/DL, the “LEUKOCYTE COUNT” value [1] was 13.4 x10E3/uL and the LYMPHOCYTE [1] was 88.33%. The “MEAN CORPUSCULAR HEMOGLOBIN” value [1] was 23.73 pg, the “MEAN CORPUSCULAR HEMOGLOBIN CONCENTRATION” value [1] was 37.43 G/DL and the “MEAN CORPUSCULAR VOLUME” value [1] was 63.4 fL. The MONOCYTE [1] was 2.83%, the NEUTROPHIL [1] was 7.17% and the “NUCLEATED RED BLOOD CELLS” value [1] was 0 /100WBC. For the same compound, the “PLATELET COUNT” value [1] was 1184.67 x10E3/uL, the “ALANINE AMINOTRANSFERASE” value [1] was 45.33 u/L and the ALBUMIN [1] was 4.3 G/DL. The “ALKALINE PHOSPHATASE” value [1] was 388.83 u/L, the “ASPARTATE AMINOTRANSFERASE” value [1] was 84.83 u/L and the “BLOOD UREA NITROGEN” value [1] was 15.5 mg/dL. The “CARBON DIOXIDE” value [1] was 27 mmol/L, the CHLORIDE [1] was 101.8 MEQ/L and the CHOLESTEROL [1] was 76.67 mg/dL. The “CREATINE PHOSPHOKINASE” value [1] was 301 u/L, the CREATININE [1] was 0.21 mg/dL and the GLUCOSE [1] was 168.83 mg/dL. The “LACTATE DEHYDROGENASE” value [1] was 294.83 u/L, the LIPASE [1] was 9.8 u/L and the PHOSPHORUS [1] was 13.25 mg/dL. The POTASSIUM [1] was 6.41 MEQ/L, the SODIUM [1] was 143.72 MEQ/L and the “TOTAL BILIRUBIN” value [1] was 0.22 mg/dL. The “TOTAL PROTEIN” value [1] was 5.98 G/DL, the “ABSOLUTE BASOPHIL” value [2] was 0 CELLS/uL and the “ABSOLUTE EOSINOPHIL” value [2] was 190.67 CELLS/uL. For the same compound, the “ABSOLUTE LYMPHOCYTE” value [2] was 12549.5 CELLS/uL, the “ABSOLUTE MONOCYTE” value [2] was 276 CELLS/uL and the “ABSOLUTE SEGMENTED NEUTROPHIL” value [2] was 1067.17 CELLS/uL. The BASOPHIL [2] was 0%, the EOSINOPHIL [2] was 1.33% and the “ERYTHROCYTE COUNT” value [2] was 5.66 x10E6/uL. For the same compound, the HEMATOCRIT [2] was 35.92%, the HEMOGLOBIN [2] was 13.65 G/DL and the “LEUKOCYTE COUNT” value [2] was 14.08 x10E3/uL. For the same compound, the LYMPHOCYTE [2] was 89%, the “MEAN CORPUSCULAR HEMOGLOBIN” value [2] was 24.12 pg and the “MEAN CORPUSCULAR HEMOGLOBIN CONCENTRATION” value [2] was 38.03 G/DL. For the same compound, the “MEAN CORPUSCULAR VOLUME” value [2] was 63.47 fL, the MONOCYTE [2] was 2% and the NEUTROPHIL [2] was 7.67%. The “NUCLEATED RED BLOOD CELLS” value [2] was 0.17 /100WBC, the “PLATELET COUNT” value [2] was 1251.67 x10E3/uL and the “ALANINE AMINOTRANSFERASE” value [2] was 43.33 u/L. For the same compound, the ALBUMIN [2] was 4.22 G/DL, the “ALKALINE PHOSPHATASE” value [2] was 365.67 u/L and the “ASPARTATE AMINOTRANSFERASE” value [2] was 83.67 u/L. The “BLOOD UREA NITROGEN” value [2] was 18.17 mg/dL, the “CARBON DIOXIDE” value [2] was 28.67 mmol/L and the CHLORIDE [2] was 103.5 MEQ/L. For the same compound, the CHOLESTEROL [2] was 71.5 mg/dL, the “CREATINE PHOSPHOKINASE” value [2] was 284.5 u/L and the CREATININE [2] was 0.21 mg/dL. The GLUCOSE [2] was 161.67 mg/dL, the “LACTATE DEHYDROGENASE” value [2] was 259.67 u/L and the LIPASE [2] was 9.5 u/L. It also gave a PHOSPHORUS [2] of 12.45 mg/dL, a POTASSIUM [2] of 6.49 MEQ/L and an SODIUM [2] of 144.25 MEQ/L. The “TOTAL BILIRUBIN” value [2] was 0.2 mg/dL, the “TOTAL PROTEIN” value [2] was 6.1 G/DL and the “ABSOLUTE BASOPHIL” value [3] was 0 CELLS/uL. The “ABSOLUTE EOSINOPHIL” value [3] was 47 CELLS/uL, the “ABSOLUTE LYMPHOCYTE” value [3] was 6476.33 CELLS/uL and the “ABSOLUTE MONOCYTE” value [3] was 108 CELLS/uL. For the same compound, the “ABSOLUTE SEGMENTED NEUTROPHIL” value [3] was 402 CELLS/uL, the BASOPHIL [3] was 0% and the EOSINOPHIL [3] was 1%. The “ERYTHROCYTE COUNT” value [3] was 5.55 x10E6/uL, the HEMATOCRIT [3] was 35.4% and the HEMOGLOBIN [3] was 13.17 G/DL. For the same compound, the “LEUKOCYTE COUNT” value [3] was 7.03 x10E3/uL, the LYMPHOCYTE [3] was 91.67% and the “MEAN CORPUSCULAR HEMOGLOBIN” value [3] was 23.73 pg. The “MEAN CORPUSCULAR HEMOGLOBIN CONCENTRATION” value [3] was 37.2 G/DL, the “MEAN CORPUSCULAR VOLUME” value [3] was 63.8 fL and the MONOCYTE [3] was 1.67%. The NEUTROPHIL [3] was 5.67%, the “NUCLEATED RED BLOOD CELLS” value [3] was 0 /100WBC and the “PLATELET COUNT” value [3] was 1224.33 x10E3/uL. For the same compound, the “ALANINE AMINOTRANSFERASE” value [3] was 45.33 u/L, the ALBUMIN [3] was 4.27 G/DL and the “ALKALINE PHOSPHATASE” value [3] was 484.33 u/L. For the same compound, the “ASPARTATE AMINOTRANSFERASE” value [3] was 84.67 u/L, the “BLOOD UREA NITROGEN” value [3] was 13.67 mg/dL and the “CARBON DIOXIDE” value [3] was 28 mmol/L. For the same compound, the CHLORIDE [3] was 103 MEQ/L, the CHOLESTEROL [3] was 71 mg/dL and the “CREATINE PHOSPHOKINASE” value [3] was 192.33 u/L. The CREATININE [3] was 0.18 mg/dL, the GLUCOSE [3] was 148.33 mg/dL and the “LACTATE DEHYDROGENASE” value [3] was 120.67 u/L. It also gave an LIPASE [3] of 9.33 u/L, a PHOSPHORUS [3] of 12.27 mg/dL and a POTASSIUM [3] of 6.28 MEQ/L. For the same compound, the SODIUM [3] was 147.37 MEQ/L and the “TOTAL BILIRUBIN” value [3] was 0.2 mg/dL.
